pIC50: −log10 of the molar value. ≈ marks a conversion by molar mass, not a printed value. Like-named read-outs stand apart in the source and are kept apart here.
Key:
[1] = test system: linezolid- and vancomycin-resistant Enterococcus faecalis (LVRE); assay: In vitro antibacterial activity, broth microdilution (MIC90); settings: read-out: Antibacterial activity MIC90, LVRE
Description: (§4) MIC90 measurement was made according to the broth microdilution method based on the CLSI document [Clinical and Laboratory Standards Institute Document.
(§5) The test compounds in DMSO solution were further diluted 20-fold with sterile distilled water.

[2] = target: T1, monoamine oxidase A (MAO A) (Homo sapiens, UniProt P21397); assay: MAO inhibition (MAO-GLO assay); assay type: biochemical; settings: MAO-GLO kit, compounds at 3.9-500 uM; read-out: MAOA
T1 construct: purchased Sigma-Aldrich (USA)
T1 sequence (P21397 1-527): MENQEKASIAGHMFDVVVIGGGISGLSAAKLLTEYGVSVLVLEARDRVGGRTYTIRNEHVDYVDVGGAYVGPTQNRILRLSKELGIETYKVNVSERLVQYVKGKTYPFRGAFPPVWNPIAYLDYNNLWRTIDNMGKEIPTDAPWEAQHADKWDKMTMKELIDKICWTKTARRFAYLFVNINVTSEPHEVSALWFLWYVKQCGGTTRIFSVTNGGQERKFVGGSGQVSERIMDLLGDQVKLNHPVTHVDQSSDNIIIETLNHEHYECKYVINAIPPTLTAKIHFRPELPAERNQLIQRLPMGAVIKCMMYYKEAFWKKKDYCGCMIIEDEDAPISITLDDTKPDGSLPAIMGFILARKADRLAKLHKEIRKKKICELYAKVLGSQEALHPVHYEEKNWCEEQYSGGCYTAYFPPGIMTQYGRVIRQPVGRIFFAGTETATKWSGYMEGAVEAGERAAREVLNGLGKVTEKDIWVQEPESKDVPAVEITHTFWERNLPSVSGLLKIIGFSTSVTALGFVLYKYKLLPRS
Description: (§1) The oxazolidinone derivatives according to the present invention synthesized in the examples were tested for inhibition of monoamine oxidase A (MAO A) and monoamine oxidase B (MAO B). MAO-GLO assay kit was purchased from Promega (USA) and MAO A and MAO B enzymes were purchased from Sigma-Aldrich (USA). From the aldehyde product resulting from the action of the MAO enzyme on the amine group of the substrate, luciferin methyl ester is produced. The luciferin detection reagent is then added to inactivate the MAO enzymes. The esterase and the luciferase included in the reagent oxidize luciferin, thereby emitting light. The light emission is detected to measure the activity of MAO. The light emission was detected using LEADseeker (Amershan Bioscience, Sweden). MAO activity was measured in the presence of the compounds according to the present invention at 3.9-500 uM and compared with the non-treated control group. Linezolid was used as a comparison compound. For the measurement of the MAO inhibition activity of the compounds represented by Chemical Formula 1, the IC50 value, i.e., the concentration of the compounds at which the enzymatic activity is inhibited by 50% (This value is related with the inhibition constant Ki), can be determined. The concentration of the inhibitor at which the rate of hydrolysis of the substrate is reduced to 50% (i.e., the IC50 value) can be determined from a log plot of the relative rate of hydrolysis (as compared to the non-inhibited control group) versus the concentration of the compounds of Chemical Formula 1.
(§2) The MAO inhibition effect of the compounds of Chemical Formula 1 was measured by determining the inhibition constant Ki. Ki=IC50/{1+(┌S┐/Km)} Equation 1
(§3) In Equation 1, Km is the Michaelis-Menten constant, i.e., the concentration of the substrate at which the rate of enzymatic reaction is half of the maximum, and IC50 is the concentration of the inhibitor at which the rate of the hydrolysis of the substrate is reduced by 50%. The IC50 value was measured by plotting a log plot of the relative rate of hydrolysis (as compared to the non-inhibited control group) versus the concentration of the compounds of Chemical Formula 1. GraFit statistical analysis program (version 5.0.12) purchased from Erithacus Software was used.

[3] = target: T2, monoamine oxidase B (MAO B) (Homo sapiens, UniProt P27338); assay: MAO inhibition (MAO-GLO assay); assay type: biochemical; settings: MAO-GLO kit, compounds at 3.9-500 uM; read-out: MAOB
T2 construct: purchased Sigma-Aldrich (USA)
T2 sequence (P27338 1-520): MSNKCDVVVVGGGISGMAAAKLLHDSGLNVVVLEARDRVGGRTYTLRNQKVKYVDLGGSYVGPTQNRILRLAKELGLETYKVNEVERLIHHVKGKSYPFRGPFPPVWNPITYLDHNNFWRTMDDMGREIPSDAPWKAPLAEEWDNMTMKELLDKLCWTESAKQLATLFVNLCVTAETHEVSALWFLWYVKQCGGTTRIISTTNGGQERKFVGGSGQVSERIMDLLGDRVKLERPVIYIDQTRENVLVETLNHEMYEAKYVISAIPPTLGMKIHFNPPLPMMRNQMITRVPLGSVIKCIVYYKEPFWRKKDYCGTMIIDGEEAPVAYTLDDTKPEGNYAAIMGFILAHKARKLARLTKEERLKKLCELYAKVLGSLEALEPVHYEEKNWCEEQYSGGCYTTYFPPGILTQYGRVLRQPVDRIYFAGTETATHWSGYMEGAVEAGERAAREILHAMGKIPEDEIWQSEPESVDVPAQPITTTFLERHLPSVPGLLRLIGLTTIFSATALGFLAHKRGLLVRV
Description: as §1, §2, §3

[4] = test system: methicillin-resistant Staphylococcus aureus (MRSA); assay: In vitro antibacterial activity, broth microdilution (MIC90); settings: read-out: Antibacterial activity MIC90, MRSA
Description: as §4, §5

[5] = Cytotoxicity measurement by MTT assay; assay type: cell-based; settings: Chinese hamster
Excerpt: The MTT assay is a […], colorimetric assay for mammalian cell survival and cell proliferation. It depends on the reduction of tetrazolium salt MTT by the mito-chondrial succinate dehrogenase of viable cells to form a blue formazan product. The assay measures cell respiration, and the amount of formazan product to the number of living cells present in culture. In this test, Chinese hamster ovary cells (CHO-K1) were purchased from ATCC (USA). Subcultured CHO cells were detached from the culture flask by treating with trypsin-EDTA solution, and seeded on a 96-well microplate, with 5000 cells per each well. After culturing for 24 hours in a 37° C., 5% CO2 incubator, the cells were treated with the oxazolidinone derivatives according to the present invention synthesized in the above examples, at 7 different concentrations. After further culturing for 48 hours in a 37° C., 5% CO2 incubator, 15 uL of […] MTT solution was added to each well. The cells were further incubated in the 37° C., 5% CO2 incubator for about 2 hours. Then, the culture medium was discarded and 100 uL of DMSO solution was added to each well. After agitating the microplate for 30 minutes, absorbance was measured at 550 nm using Spectramax plus 190 plate reader (Molecular Devices, USA). The absorbance decrease of the compound-treated groups compared to the non-treated control group is an indication of the decrease of surviving cells, which enables the measurement of the cytotoxicity of the compounds. The CC50 value, i.e., the concentration at which the cell proliferation is reduced to 50%, of the compounds according to the present invention was computed using the GraFit statistical analysis program (version 5.0.12) purchased from Erithacus Software after calculating the percentages of the absorbance at various concentrations as compared to the control group.

[6] = Measurement of solubility in water by 1H NMR; assay type: physicochemical; settings: for solubility at 30 min: water, thermodynamic from solid
Description: Water solubilities of methanesulfonates (MSA) of representative compounds among the oxazolidinone derivatives of Chemical Formula 1 were measured.
Solubility measurement was done by ^1H NMR according to the following method. First, a methanesulfonate (100 mg) of the compound was added to D2O (0.5 mL). After preparing a saturated solution by vigorous shaking for 30 minutes, the solution was filtered and 0.3 mL is taken therefrom. A reference compound solution (0.3 mL) (In this test example, DMSO diluted with D2O was used.) with an exactly known concentration was added thereto. From the ^1H NMR spectrum of the solution, the integral ratio of the sample peak to the reference (DMSO) peak was calculated. Since the concentration of the reference solution is known, the mols of the sample can be calculated from the integral ratio. Then, the solubility of the sample was calculated.

SMILES | MIC90 [1] [mg/L] | pIC50 [2] | pIC50 [3] | MIC90 [4] [mg/L] | CC50 at 48 h [5] [µM] | MIC [1] [mg/L] | solubility at 30 min [6] [mg/mL] | % solubility in water ([6]; methanesulfonate (MSA) of the compound, saturated solution in D2O, linezolid as reference) | solubility at 30 min ([6]; read-out: Solubility of methanesulfonate in water) [mg/mL] | CC50 at 48 h ([5]; CHO-K1 cells, 48 hours treatment, MTT, read-out: CC50) [µM]
CC(=O)NC[C@H]1CN(c2ccc(N3CCOCC3)c(F)c2)C(=O)O1 [Linezolid, linezolid, reference compound] | 32 (≈ 94.9 µM) | 5.10 | 5.37 | 2 (≈ 5.93 µM) | > 130 | – | – | – | – | –
CN1CCN(c2ccc(N3C[C@H](Cn4ccnn4)OC3=O)cc2F)C=N1 [Compound 83] | – | 4.72 | 3.68 | 1 (≈ 2.78 µM) | > 130 | 16 (≈ 44.5 µM) | 117 (≈ 326000 µM) | – | – | –
CN1CCN(c2ccc(N3C[C@H](CO)OC3=O)cc2F)C=N1 [Compound 94] | – | 5.40 | 3.75 | 1 (≈ 3.24 µM) | > 130 | 64 (≈ 208 µM) | 136 (≈ 441000 µM) | – | – | –
CN1CCN(c2ccc(N3C[C@H](CNc4ccon4)OC3=O)cc2F)C=N1 [Compound 89] | – | 5.28 | < 3.60 | 0.5 (≈ 1.34 µM) | – | 8 (≈ 21.4 µM) | – | (13%) | 129 (≈ 345000 µM) | > 130
Cn1nnc(-c2ccc(-c3ccc(N4C[C@H](CO)OC4=O)cc3F)cn2)n1 [TR-700, reference compound] | – | > 5.70 | 5.21 | – | 28 | – | – | – | – | –
COC(=S)NC[C@H]1CN(c2ccc(N3C=NOCC3)cc2)C(=O)O1 [Compound 102] | – | 4.05 | 4.08 | 0.25 (≈ 0.713 µM) | > 130 | 4 (≈ 11.4 µM) | – | – | – | –
COC(=S)NC[C@H]1CN(c2ccc(N3C=NN(C=O)CC3)c(F)c2)C(=O)O1 [Compound 53] | – | 4.62 | 4.24 | 0.5 (≈ 1.26 µM) | > 130 | 8 (≈ 20.2 µM) | – | – | – | –
CCNC(=S)NC[C@H]1CN(c2ccc(N3C=NN(C=O)CC3)c(F)c2)C(=O)O1 [Compound 56] | – | – | – | 4 (≈ 9.79 µM) | – | 8 (≈ 19.6 µM) | – | – | – | –
CC(=O)CN1CCN(c2ccc(N3C[C@H](CNC(C)=O)OC3=O)cc2F)C=N1 [Compound 37] | – | – | – | 2 (≈ 5.11 µM) | – | 8 (≈ 20.4 µM) | – | – | – | –
O=CN1CCN(c2c(F)cc(N3C[C@H](CNc4ccon4)OC3=O)cc2F)C=N1 [Compound 105] | – | – | – | 0.5 (≈ 1.23 µM) | – | 16 (≈ 39.4 µM) | – | – | – | –
CC(=O)NC[C@H]1CN(c2ccc(N3C=NN(C(=S)OCCO)CC3)c(F)c2)C(=O)O1 [Compound 32] | – | – | – | 8 (≈ 18.2 µM) | – | 32 (≈ 72.8 µM) | – | – | – | –
O=CN1CCN(c2ccc(N3C[C@H](CNc4nccs4)OC3=O)cc2F)C=N1 [Compound 80] | – | – | – | 2 (≈ 4.95 µM) | – | 16 (≈ 39.6 µM) | – | – | – | –

From patent publication US8242113B2, “Oxazolidinone derivatives with cyclic amidoxime or cyclic amidrazone pharmaceutical compositions thereof” (Legochem Biosciences, Inc., priority 2008, dated 2012)
